Data on one compound can be found in patent US8334403B1, “C-lysine conjugates as pH-controlled, light-activated reagents for double stranded DNA cleavage and associated methods” (Florida State University Research Foundation, Inc., priority 2005, dated 2012).

The subject of one assay is UMRC6 cells. As to the kind of experiment: RCC cell proliferation assay, UMRC6. It is filed as cell-based. Conditions: Homo sapiens, UMRC6, UV 350 nm 10 minutes, 72 hours. Here is the method: FIG. 23 provides the results of cell proliferation assays using three different RCC cell lines: (a) UMRC3, (b) UMRC6 and (c) 786-O, and compounds I-5; RCC cells were resuspended in media and treated with UV radiation (350 nm) for 10 minutes with and without indicated compounds; control cells were exposed to the indicated compound 1-5 at final concentration of 10 μM; cell numbers determined after 72 hours as described in the SI Section;
The ability of compounds 1-5 to inhibit cell proliferation in three human clear cell renal cell carcinoma (RCC) cell lines was tested in the dark and under photoactivation (FIG. 23). No difference was detected in the control experiments between cells not exposed to UV versus those that were exposed to UV at 350 nm for 10 minutes in any of the three RCC cell lines tested (FIG. 23 A, B & C; first two columns).

The next assay has as its system pBR322 plasmid DNA. As to the kind of experiment: Plasmid relaxation assay: DNA photocleavage of supercoiled plasmid under UV irradiation. Format: biochemical. The method, then: General information. ^1H, ^13C and ^19F NMR were collected on a Varian Gemini 300 MHz NMR spectrometer and a Bruker 300 MHz NMR spectrometer. Mass spectrometry data was collected on a Jeol JMS-600H. UV spectra were recorded on a Shimadzu UV-2100. Fluorescence spectra were obtained with SPEX FluoMax spectrofluorimeter using right-angle geometry. pH was adjusted with AB 15 plus pH meter (Accument) after standardization at 25° C. All buffers were prepared and pH-adjusted at room temperature (25° C.). Plasmid DNA Photocleavage. pBR322 plasmid DNA (4,361 b/p; from BioLabs Inc., 1 μg/μL solution in 10 mM Tris-HCl (pH 8.0), and 1 mM EDTA buffer) was diluted to a concentration of 0.01 μg/μL. The solution containing cleavage agent, DNA (30 μM/bp) in 20 mM sodium phosphate buffer was incubated for 1 hour at 30° C. Samples were placed on ice at a distance of 20 cm from 200 W Hg—Xe lamp (Spectra-Physics, Laser & Photonics Oriel Instruments with long pass filter with 324 nm cut-off wavelength). Electrophoretic Analysis. The gel electrophoresis was carried out in 1×TBE buffer at 80 V using Miligel FisherBiotech Horizontal Electrophoresis System. All gels were run on 1% agarose slab gels. Before loading, the DNA samples were mixed with 0.33 volume of tracking dye containing bromophenol blue (0.25%) and glycerol (30%) in water. After staining in ethidium bromide solution (2 μg/ml) for 1 hour, the gel was washed with water and pictures were taken with Polaroid 3000ISO type 667 film. The relative quantities of the supercoiled, nicked, and linear DNA were calculated by integrating the “area” of each spot by the image analyzer software Total/Lab (Nonlinear Dynamics Ltd., UK). The amount of supercoiled DNA was multiplied by factor of 1.4 to account for reduced ethidium bromide intercalation into supercoiled DNA. pH titration by ^1H-NMR. pH* of compound 8 (3 mM) solution in D2O containing 0.05 wt % 3-(trimethylsilyl)propionic-2,2,3,3-d4 acid, sodium salt (TSP-d4) was adjusted with 10 wt % DCI and NaOD in D2O at 25° C. under argon purged condition. Spectrometric determinations of pKa. pH of 10 μM of compound solution in H2O was adjusted with 10, 100 mM HCl (aq) and NaOH (aq) solution under argon purged condition. Excitation wavelength was 330 nm and polymethacrylate fluorimeter cuvettes were used. Absorbance and fluorescence titration with DNA. The concentrations of calf thymus DNA stock solution was determined spectophotometrically using the following molar absorptovity values: 1.32×10^4 M^−1 cm^−1 (per base pair) at 260 nm. All experiments were done in 20 mM sodium phosphate buffer at 25° C. and polymethacrylate fluorimeter cuvettes were used. The same amount of DNA was added to both sample and reference cuvettes during UV/Vis titration. Determination of excited state lifetimes. The concentration of compound solution was 10 μM in 20 mM sodium phosphate buffer. The photoluminescence lifetime measurements were conducted by exciting the samples with the output of a Nd:VO—4 (Spectra-Physics Vanguard, 2 W, 532 nm, 76 MHz, 10 ps) pumped R6G dye laser (Coherent 702-1). The output of the dye laser (600 nm, Rhodamine 6G) was cavity dumped at 1.9 MHz and frequency doubled using a BBO crystal to excite the fluorophore (the excitation wavelength used was 290 nm). Samples were excited with <1 mW power and the emission was collected at right angles onto a Chromex S3 500 is 0.5 m imaging monochromator with a 50 g/mm grating and 0.5 nm resolution. Output of the monochromator is focused into a Hamamatsu C5680 streak camera operating at a 20 ns window for the fluorophore. Intensity analysis was carried out by integrating the spectral profile in time on the streak camera. Lifetime analysis over 6-7 lifetimes of the fluorophore was conducted by binning the photoluminescence intensity collected on the streak camera over a 20 nm spectral window at the centroid value of the emission of the fluorophore. Ethidium bromide displacement. […]

A further assay relates to calf thymus (CT) DNA. As to the kind of experiment: UV-Vis absorbance titration with DNA. It is filed as binding. Conditions: 20 mM phosphate buffer. Here is the method: General information. ^1H, ^13C and ^19F NMR were collected on a Varian Gemini 300 MHz NMR spectrometer and a Bruker 300 MHz NMR spectrometer. Mass spectrometry data was collected on a Jeol JMS-600H. UV spectra were recorded on a Shimadzu UV-2100. Fluorescence spectra were obtained with SPEX FluoMax spectrofluorimeter using right-angle geometry. pH was adjusted with AB 15 plus pH meter (Accument) after standardization at 25° C. All buffers were prepared and pH-adjusted at room temperature (25° C.). Plasmid DNA Photocleavage. pBR322 plasmid DNA (4,361 b/p; from BioLabs Inc., 1 μg/μL solution in 10 mM Tris-HCl (pH 8.0), and 1 mM EDTA buffer) was diluted to a concentration of 0.01 μg/μL. The solution containing cleavage agent, DNA (30 μM/bp) in 20 mM sodium phosphate buffer was incubated for 1 hour at 30° C. Samples were placed on ice at a distance of 20 cm from 200 W Hg—Xe lamp (Spectra-Physics, Laser & Photonics Oriel Instruments with long pass filter with 324 nm cut-off wavelength). Electrophoretic Analysis. The gel electrophoresis was carried out in 1×TBE buffer at 80 V using Miligel FisherBiotech Horizontal Electrophoresis System. All gels were run on 1% agarose slab gels. Before loading, the DNA samples were mixed with 0.33 volume of tracking dye containing bromophenol blue (0.25%) and glycerol (30%) in water. After staining in ethidium bromide solution (2 μg/ml) for 1 hour, the gel was washed with water and pictures were taken with Polaroid 3000ISO type 667 film. The relative quantities of the supercoiled, nicked, and linear DNA were calculated by integrating the “area” of each spot by the image analyzer software Total/Lab (Nonlinear Dynamics Ltd., UK). […] Absorbance and fluorescence titration with DNA. The concentrations of calf thymus DNA stock solution was determined spectophotometrically using the following molar absorptovity values: 1.32×10^4 M^−1 cm^−1 (per base pair) at 260 nm. […]

Broadly, the mortality is the percentage killed. Lower therefore signals more survivors. In the assay with UMRC6 cells, `Cl.Cl.NCCCC[C@H](N)C(=O)Nc1ccc(C#Cc2c(F)c(F)nc(F)c2F)cc1` [Compound 4, (S)-2,6-Diamino-hexanoic acid [4-(2,3,5,6-tetrafluoro-pyridin-4-ylethynyl)-phenyl]-amide dihydrochloride] gave a mortality at 10 µM of 90%. The ds cleavage in the assay on pBR322 plasmid DNA (higher concentrations of 4) was at most 50%. Also, the “decrease of total DNA cleavage activity on increasing phosphate buffer from 10 mM to 50 mM” value with pBR322 plasmid DNA (pH 5.5, 10 μM) came out at 48%; with pBR322 plasmid DNA (pH 7, 10 μM) it was 40%; in the assay on pBR322 plasmid DNA (pH 8, 10 μM), 34%. The “irradiation time until plasmid DNA is completely consumed” value in the assay with pBR322 plasmid DNA (pH 6, 10 μM) is at most 5 min. Besides, the “protection of DNA from damage by hydroxyl radical/singlet oxygen scavengers” value in the assay with pBR322 plasmid DNA (pH 6, 10 mM scavenger, 5 min irradiation) was “neither of the additives is able to protect DNA”. Moreover, in the assay with pBR322 plasmid DNA (pH 6, 3 minutes of irradiation, 15 μM, 30 μM/bp DNA), the “intact DNA (Form I) remained” value came out at 16%. Further, the “unreacted DNA (Form I)” value with pBR322 plasmid DNA (pH 7, 3 minutes of irradiation, 15 μM, 30 μM/bp DNA) is on record as 60%; with pBR322 plasmid DNA (pH 8, 3 minutes of irradiation, 15 μM, 30 μM/bp DNA) it was 86%. Moreover, in the assay on pBR322 plasmid DNA (pH 8, after an hour of irradiation, 10 μM), the DNA remains unreacted is about 60%. Besides, the “hypochromicity on titration with DNA” value with calf thymus (CT) DNA (pH 5.5, 10 μM) came to 20%; in the assay on calf thymus (CT) DNA (pH 7, 10 μM), 14%.
